Data as given in patent US12357617B2, “Discovery of novel anti-infectives for gram negative pathogens” (priority 2018, dated 2025).
Values after ≈ are worked out from the molar mass of the structure shown. “Also recorded” adds a separate entry of the source. Where two headings read alike, the source gives them in different places.

How the values were obtained:
[1] = system: virulence loci (virG, bsaM, bimA, vgrG) of Bt E264; format: cell-based, Burkholderia thailandensis
[2] = system: T6SS-5 secretion activity (Hcp), Bt E264; format: cell-based, Burkholderia thailandensis
[3] = system: T6SS-5 secretion activity (Hcp), Bp 1026b; format: cell-based, Burkholderia pseudomallei
Bp MSHR305 = format: cell-based, Burkholderia pseudomallei
Bt E264 = format: cell-based, Burkholderia thailandensis
Bp 1026b [4] = format: cell-based, Burkholderia pseudomallei
[5] = reference 37; cited from earlier work
HEK293 cells = experiment: CellTiter-Glo cell viability (cellular toxicity) assay; details: for TD = toxic dose (dose at which HEK293 cell growth is significantly affected): Celltitre-Glo, HEK293 cells; for effect on HEK293 cell viability: concentrations 10-fold higher than the IC100, ATP-depletion assay
Bt [6] = format: cell-based, Burkholderia thailandensis
Bm 23344 = format: cell-based, Burkholderia mallei
Bp 1026b [7] = format: in vivo, BALB/c mice
Bt [8] = format: cell-based, Burkholderia thailandensis; remark: listed apart in the source
Bt [9] = experiment: microbe, parasite or virus in culture; format: cell-based, Burkholderia thailandensis; details: for MIC: Burkholderia thailandensis, read-out: in vitro MIC
Bp82 (BpeEF-OprC-) = experiment: microbe, parasite or virus in culture; format: cell-based; details: Burkholderia pseudomallei
[10] = system: S. aureus resistant isolate 2; experiment: MIC by broth microdilution, S. aureus resistant isolate 2; format: cell-based; details: Staphylococcus aureus
E. coli DNA gyrase = molecular target: T1, E. coli DNA gyrase (Escherichia coli, UniProt P0AES4+P0AES6); experiment: E. coli DNA gyrase negative supercoiling assay; format: biochemical; details: 100 uM or 500 uM, agarose gel
T1 construct: purchased New England Biolabs
T1 sequence (P0AES4 whole entry, one chain of several): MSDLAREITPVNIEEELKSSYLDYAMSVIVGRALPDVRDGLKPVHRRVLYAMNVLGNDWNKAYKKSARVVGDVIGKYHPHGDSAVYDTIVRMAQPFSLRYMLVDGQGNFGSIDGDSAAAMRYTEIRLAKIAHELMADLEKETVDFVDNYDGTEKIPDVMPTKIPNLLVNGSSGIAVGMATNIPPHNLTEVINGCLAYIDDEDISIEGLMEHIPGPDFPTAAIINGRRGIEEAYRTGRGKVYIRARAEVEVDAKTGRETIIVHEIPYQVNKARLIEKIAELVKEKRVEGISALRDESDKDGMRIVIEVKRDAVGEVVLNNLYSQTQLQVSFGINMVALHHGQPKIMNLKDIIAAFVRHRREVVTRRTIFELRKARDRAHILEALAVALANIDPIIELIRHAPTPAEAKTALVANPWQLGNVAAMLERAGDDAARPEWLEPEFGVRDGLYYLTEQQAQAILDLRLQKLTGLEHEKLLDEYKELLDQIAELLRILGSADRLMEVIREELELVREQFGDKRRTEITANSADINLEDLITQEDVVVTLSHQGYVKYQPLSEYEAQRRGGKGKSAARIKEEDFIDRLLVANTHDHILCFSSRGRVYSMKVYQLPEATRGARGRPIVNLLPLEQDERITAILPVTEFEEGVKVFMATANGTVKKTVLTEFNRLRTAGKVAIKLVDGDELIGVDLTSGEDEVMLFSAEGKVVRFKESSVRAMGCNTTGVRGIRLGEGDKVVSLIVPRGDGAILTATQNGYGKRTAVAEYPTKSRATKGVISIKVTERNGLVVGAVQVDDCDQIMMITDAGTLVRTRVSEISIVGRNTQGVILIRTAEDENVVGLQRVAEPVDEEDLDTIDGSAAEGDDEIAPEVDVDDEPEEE

[11] = system: P. aueruginosa ATCC 27853; experiment: MIC by broth microdilution, P. aeruginosa ATCC 27853; format: cell-based, Pseudomonas aeruginosa; details: for MIC: Pseudomonas aeruginosa, ATCC27853
[12] = system: E. coli resistant isolate 2; experiment: MIC by broth microdilution, E. coli resistant isolate 2; format: cell-based; details: Escherichia coli; E. coli resistant isolate 2 (Cip-resistant clinical isolate)
Bp82.270 (BpeEF-OprC+) = experiment: microbe, parasite or virus in culture; format: cell-based; details: Burkholderia pseudomallei
S. aureus ATCC 29213 = experiment: MIC by broth microdilution, S. aureus ATCC 29213; format: cell-based; details: Staphylococcus aureus, ATCC29213
Bp82.284 (BpeEF-OprC+) = experiment: microbe, parasite or virus in culture; format: cell-based; details: Burkholderia pseudomallei
E. coli 25922 = experiment: MIC by broth microdilution, E. coli 25922; format: cell-based, Escherichia coli; details: for MIC: Escherichia coli, E. coli 25922, broth microdilution
[13] = system: P. aeruginosa resistant isolate 2; experiment: MIC by broth microdilution, P. aeruginosa resistant isolate 2; format: cell-based; details: Pseudomonas aeruginosa
[14] = system: E. coli resistant isolate 1; experiment: MIC by broth microdilution, E. coli resistant isolate 1; format: cell-based; details: Escherichia coli; E. coli resistant isolate 1 (Cip-resistant clinical isolate)
Bp82.285 (BpeEF-OprC+) = experiment: microbe, parasite or virus in culture; format: cell-based; details: Burkholderia pseudomallei
[15] = system: S. aureus resistant isolate 1; experiment: MIC by broth microdilution, S. aureus resistant isolate 1; format: cell-based; details: Staphylococcus aureus
[16] = system: P. aeruginosa resistant isolate 1; experiment: MIC by broth microdilution, P. aeruginosa resistant isolate 1; format: cell-based; details: Pseudomonas aeruginosa

## Nc1nc(=O)[nH]cc1F [5-FC, flucytosine]
[1]
  reduction in the expression of virG, bsaM, bimA, and vgrG: ≤ 4 fold
[2]
  expression of Hcp (pellet): does not affect expression of Hcp
  secretion of Hcp (supernatant): inhibits secretion of Hcp
[3]
  expression of Hcp (pellet): does not affect expression of Hcp
  secretion of Hcp (supernatant): inhibits secretion of Hcp
Bp MSHR305
  plaque formation by Bp MSHR305: effective at ablating plaque formation
Bt E264
  inhibition of plaque formation by Bt E264 (screen and validation): inhibitors; also recorded: activity against Bp and Bt
  intercellular spread by time of addition: robustly inhibits intercellular spread irrespective of time of addition
  plaque formation by Bt: completely inhibits plaque formation; also recorded: completely abolished plaque formation
  plaque formation by Bt at increasing concentrations: inhibits plaque formation
Bp 1026b [4]
  ED = effective dose (IC100) against Bp: 3.1 µM
  inhibition of plaque formation by Bp 1026b (validation): activity against Bp and Bt
  plaque formation by Bp at increasing concentrations: inhibits plaque formation
[5]
  bioavailability: good bioavailability
HEK293 cells
  TD = toxic dose (dose at which HEK293 cell growth is significantly affected): >50 µM
  effect on HEK293 cell viability: no effect on cell viability
Bt [6]
  actin-mediated intracellular motility (bacteria with actin tails): does not inhibit actin-mediated intracellular motility
Bm 23344
  inhibition of plaque formation by Bm 23344 (validation): ineffective
Bp 1026b [7]; mouse, in vivo
  bacterial loads in liver and spleen compared to lung of surviving mice: low or undetectable bacterial loads
  bacterial loads in lungs, livers, and spleens: decreased, although to a lesser extent
  histopathology: inflammation in pulmonary, hepatic, and splenic tissue: significantly reduced inflammation
  mice surviving the entire study duration (10 days): 12%
  mice surviving to five days post-infection: 36.7%
  overall efficacy compared to ceftazidime: superiority to ceftazidime
Bt [8]
  decrease in peak intracellular bacterial numbers: 3 fold
  intracellular replication of Bt: delays and decreases, but does not eliminate
  intracellular replication of a fusion defective mutant (ΔvgrG): does not inhibit the intracellular replication
Bt [9]
  in vitro growth of Bt: does not significantly inhibit in vitro growth

## O=c1[nH]cc(F)c(=O)[nH]1 [5-FU, 5-fluorouracil]
Bt E264; 25 μM
  plaque formation by Bt: completely abolished plaque formation

## CCn1cc(C(=O)O)c(=O)c2cc(F)c(N3CCOCC3)cc21 [BFX, 1-Ethyl-6-fluoro-7-(4-morpholinyl)-4-oxo-1,4-dihydro-3-quinolinecarboxylic acid]
Bp82 (BpeEF-OprC-)
  MIC: 2 µg/mL (≈ 6.24 µM)
[10]
  MIC: > 7 µg/mL
Bp MSHR305; 5 μM
  plaque formation by Bp MSHR305: effective at ablating plaque formation
Bt E264
  fold lower concentration than Cip at which plaque formation by Bt is prevented: 8 fold
  inhibition of plaque formation / intercellular spread by Bt E264: near-complete inhibition
  inhibition of plaque formation by Bt E264 (screen and validation): consistently inhibit plaque formation
Bp 1026b [4]
  ED = effective dose (IC100) against Bp: 0.1 µM
  inhibition of plaque formation / intercellular spread by Bp 1026b: near-complete inhibition
  inhibition of plaque formation by Bp 1026b (validation): consistently inhibit plaque formation
E. coli DNA gyrase
  negative supercoiling activity of E. coli DNA gyrase: inhibits the negative supercoiling activity
[11]
  growth of Pseudomonas aeruginosa ATCC 27853 (in words): inhibitory for the growth
  MIC: 4 µg/mL (≈ 12.5 µM)
[12]
  MIC: > 7 µg/mL
Bp82.270 (BpeEF-OprC+)
  MIC: 32 µg/mL (≈ 99.9 µM)
S. aureus ATCC 29213
  MIC: > 7 µg/mL
Bp82.284 (BpeEF-OprC+)
  MIC: 32 µg/mL (≈ 99.9 µM)
HEK293 cells
  TD = toxic dose (dose at which HEK293 cell growth is significantly affected): >50 µM
  effect on HEK293 cell viability: no effect on cell viability
Bm 23344
  inhibition of plaque formation by Bm 23344 (validation): consistently inhibit plaque formation
Bp 1026b [7]; 10 days
  bacterial loads in liver and spleen compared to lung of surviving mice: low or undetectable bacterial loads
Bp 1026b [7]; mouse, in vivo
  bacterial loads in lungs, livers, and spleens: decreased relative to placebo and ceftazidime-treated controls
  histopathology: inflammation in pulmonary, hepatic, and splenic tissue: nearly undetectable inflammation
  overall efficacy compared to ceftazidime: superiority to ceftazidime
Bp 1026b [7]; n=8
  mice surviving the entire study duration (10 days): 63%
  mice surviving to five days post-infection: 100%
E. coli 25922
  growth of E. coli ATCC 25922 (in words): inhibitory for the growth
  MIC: 4 µg/mL (≈ 12.5 µM)
[13]
  MIC: > 7 µg/mL
[14]
  MIC: > 7 µg/mL
Bp82.285 (BpeEF-OprC+)
  MIC: 32 µg/mL (≈ 99.9 µM)
[15]
  MIC: > 7 µg/mL
Bt [8]
  intracellular replication of Bt: inhibits intracellular replication
Bt [9]
  dose needed to inhibit growth in laboratory medium: 5 µM
  in vitro growth of Bt: does not inhibit in vitro growth
  MIC: 2.6 µg/mL (≈ 8.12 µM)
[16]
  MIC: > 7 µg/mL

## O=C(O)c1cn(C2CC2)c2cc(N3CCNCC3)c(F)cc2c1=O [Cip, ciprofloxacin]
Bp82 (BpeEF-OprC-)
  MIC: 1 µg/mL (≈ 3.02 µM)
[10]
  MIC: > 7 µg/mL
E. coli DNA gyrase
  negative supercoiling activity of E. coli DNA gyrase: inhibits the negative supercoiling activity
[11]
  MIC: 4 µg/mL (≈ 12.1 µM)
Bp82.270 (BpeEF-OprC+)
  MIC: 16 µg/mL (≈ 48.3 µM)
S. aureus ATCC 29213
  MIC: > 7 µg/mL
Bp82.284 (BpeEF-OprC+)
  MIC: 16 µg/mL (≈ 48.3 µM)
E. coli 25922
  MIC: 2 µg/mL (≈ 6.04 µM)
[13]
  MIC: > 7 µg/mL
Bp82.285 (BpeEF-OprC+)
  MIC: 16 to 32 µg/mL (≈ 48.3 to 96.6 µM)
[15]
  MIC: > 7 µg/mL
Bt [9]
  MIC: 1.3 µg/mL (≈ 3.92 µM)
[16]
  MIC: > 7 µg/mL

## O=c1[nH]c(=O)n([C@@H]2O[C@H](CO)[C@@H](O)[C@H]2O)cc1F [F-UR, Fluorouridine]
Bt E264
  plaque formation by Bt: minimally inhibitory; also recorded: fully inhibitory

## O=c1[nH]c(=O)n([C@H]2C[C@H](O)[C@@H](CO)O2)cc1F [F-UdR, fluorodeoxyuridine]
Bt E264
  plaque formation by Bt: lack of inhibitory activity

## C[C@H]1COc2c(N3CCN(C)CC3)c(F)cc3c(=O)c(C(=O)O)cn1c23 [Levo, levofloxacin]
[10]
  MIC: > 7 µg/mL
[11]
  MIC: 5 µg/mL (≈ 13.8 µM)
[12]
  MIC: > 7 µg/mL
S. aureus ATCC 29213
  MIC: > 7 µg/mL
E. coli 25922
  MIC: 4 µg/mL (≈ 11.1 µM)
[13]
  MIC: > 7 µg/mL
[14]
  MIC: > 7 µg/mL
[15]
  MIC: > 7 µg/mL
[16]
  MIC: > 7 µg/mL

## C[C@@H]1CC[C@H]2[C@@H](C)C(=O)O[C@@H]3O[C@@]4(C)CC[C@@H]1[C@]32OO4 [artemisinin]
Bm 23344
  inhibition of plaque formation by Bm 23344 (validation): specific for Bm only

## CC(C)(O/N=C(\C(=O)N[C@@H]1C(=O)N2C(C(=O)[O-])=C(C[n+]3ccccc3)CS[C@H]12)c1csc(N)n1)C(=O)O [ceftazidime]
Bp 1026b [7]; mouse, in vivo
  time by which all animals succumbed to infection: by five days

## CC[C@@]1([C@@H]2O[C@@H]([C@H]3O[C@@](O)(CO)[C@H](C)C[C@@H]3C)C[C@@H]2C)CC[C@H]([C@]2(C)CC[C@]3(C[C@H](O)[C@@H](C)[C@@H]([C@@H](C)[C@@H](OC)[C@H](C)C(=O)O)O3)O2)O1 [monensin]
Bm 23344
  inhibition of plaque formation by Bm 23344 (validation): specific for Bm only

## COc1cc(Cc2cnc(N)nc2N)cc(OC)c1OC [trimethoprim]
Bt E264
  inhibition of plaque formation by Bt E264 (screen and validation): inhibitors
